Data published in patent publication US11957693B2, “Combination MCL-1 inhibitors with anti-cancer agents” (Gilead Sciences, Inc., priority 2021, dated 2024).
Entries after “also recorded” stand apart in the source; their conditions may differ.

Assays:
Assay type in all cases: cell-based
[1] = system: panel of breast cancer cell lines; assay: 72-hour in vitro proliferation combination assay, compound A with targeted agents and chemotherapies (Example 3, Table 21)
FBXW7 = FBXW7 expression by Protein Simple (Simple Western) in TNBC cell lines after paclitaxel; conditions: HCC70, MDA-MB-468, HCC1806; paclitaxel 1 μM for 4 hours, overnight incubation
Source text: Simple Western immunoassays take place in a capillary. Samples and reagents are loaded into an assay plate and placed in a Protein Simple Instrument. Cell lysates are loaded into the capillary automatically and separated by size as they migrate through a stacking and separation matrix. The separated proteins are then immobilized to the capillary wall via a proprietary, photoactivated capture chemistry. Target proteins are identified using a primary antibody and immunoprobed using an HRP-conjugated secondary antibody and chemiluminescent substrate. The resulting chemiluminescent signal is detected and quantitated.
Lysates were prepared, diluted to 0.5 ug/ml in 1× lysis buffer. Simple Western platform is run on a 384-well plate.
Markers, internal ladders and DTT are provided by Simple Western in lyophilized forms. Reagents are resuspended as protocol describes. 20 uL of water is added to the markers. 40 ul of water is added to DTT, 20 ul of 10× sample buffer and 20 ul of DTT is mixed and called Z buffer. Markers are loaded in 1 A. 5 ul of lysate was added to 1.7 ml Eppendorf tube. 1.2 ul of Z reagent was added to each sample. The samples were heated at 100 C for 5 minutes, allowed to cool than spun in a microfuge for 30 seconds. Samples are loaded in wells A2-12. […] The resulting chemiluminescent signal is detected and quantitated.

MCL1-BIM Dimer = assay: MCL1-BIM dimer MSD assay in TNBC cell lines after paclitaxel; conditions: HCC70, MDA-MB-468, HCC1806; paclitaxel 1 μM for 4 hours, overnight incubation
Experimental: (§1) Cell lysates for MSD assays were generated using 1× Lysis Buffer (10× cell signaling CST-9803) 100× Protease Inhibitor, Phosphatase Inhibitor I, Phosphatase Inhibitor II (Meso Scale Discovery Inhibitor Pack R70AA-1, and PMSF (SIGMA cat #7626)
(§2) MCL-BAK and MCL1-BIM dimer assays and total MCL1 assay were developed by MSD Custom Assay Services and run using the MSD U-PLEX Development Pack (K15227N) and protocols' revision “2018 March rev 2”. GAPDH was determined by MSD using standard assay K151PWD. All plates were read on MSD SECTOR Imager 2400 using MSD Read Buffer T (R92TC).
(§3) For MSD assays, TNBC cell lines were seeded 25,000 cells per well in clear-bottomed white 96-well plates (Corning #3909) in recommended cell culture medium. Plates were incubated at 37° C. and 100% RH for 20 hours prior to compound exposure. […] After an additional 20 hours, samples were harvested by aspirating away supernatant and 125 μl of 1× lysis buffer was added to each well. Plates were set on ice briefly and transferred to a rocking platform at 4° C. for 20 minutes. Plates were placed on dry ice, snap frozen for 10 minutes then stored at −80° C. until tested.
(§4) MCL1 and MCL1-BAK and MCL1-BIM dimer assays were run using materials and protocols provided by MSD Custom Assay Services based on their U-Plex technology. […] 150 μl of 2× read buffer was added to each well and plates were read on an MSD SECTOR Imager 2400. […]

HCC70 = assay: Cell viability combination assay (Cell Titer Glo, Bliss synergy matrix), paclitaxel 4 h pretreatment then compound A; conditions: Homo sapiens, HCC70, 4 h; read-out: Percent Inhibition
Experimental: (§5) Cells were passaged according to ATCC guidelines with 0.25% Trypsin/EDTA (1× GIBCO-25200).
(§6) Viability assessments were performed using Cell Titer Glo™ (Promega #G9241) according to manufactures microwell plate protocol and read for luminescence on Synergy Neo2 plate reader.
(§7) For synergy matrix assays, TNBC cell lines were seeded 10,000 cells per well in clear-bottomed white 96-well plates (Corning #3909) in 100 μL of recommended cell culture medium. Plates were incubated at 37° C. and 100% RH for 20 hours prior to compound exposure.
(§8) Cells were then exposed to compound A with the same checkerboard matrix using D300 dispenser and incubated for 48 hours prior to measurement of viability by Cell Titer Glo.
(§9) Calculated values were compared to experimental results generated in the sixty-three-concentration checkerboard. Synergy or antagonism scores were generated depending on whether the observed growth inhibition was greater than or less than the calculated values, respectively.
(§10) These differences were summed up across the whole checker-board (sixty-three wells) to give cumulative synergy and antagonism scores with units of μM^2% to reflect the 2D surface of the dose responses.
(§11) Data for combination assays is presented in three formats.

MDA-MB-468 = assay: as above; conditions: Homo sapiens, MDA-MB-468, 4 h; read-out: Percent Inhibition
Experimental: as §5, §6, §7, §8, §9, §10, §11

MCL1-BAK Dimer = assay: MCL1-BAK dimer MSD assay in TNBC cell lines after paclitaxel; conditions: HCC70, MDA-MB-468, HCC1806; paclitaxel 1 μM for 4 hours, overnight incubation
Experimental: as §1, §2, §3, §4

MCL1 = assay: Total MCL1 MSD assay in TNBC cell lines after paclitaxel; conditions: HCC70, MDA-MB-468, HCC1806; paclitaxel 1 μM for 4 hours, overnight incubation
Experimental: as §1, §2, §3, §4

HCC1806 = assay: Cell viability combination assay (Cell Titer Glo, Bliss synergy matrix), paclitaxel 4 h pretreatment then compound A; conditions: for Synergy Results (95% CI): Paclitaxel 0.000 μM
Experimental: as §5, §6, §7, §8, §9, §10, §11

HCC1187 (TNBC) = assay: Cell viability combination assay (Cell Titer Glo, Bliss synergy matrix), compound A + SN-38; conditions: HCC1187 1st Replicate (n = 5); SN-38 0.0000 μM; Compound A μM = c0 of row; 72 h
Source text: as §5, §9, §11

[2] = AU565 cell line, compound A × listed agent, 72-hour in vitro proliferation assay
[3] = BT-20 cell line, compound A × listed agent, 72-hour in vitro proliferation assay
[4] = BT-549 cell line, compound A × listed agent, 72-hour in vitro proliferation assay
[5] = DU-4475 cell line, compound A × listed agent, 72-hour in vitro proliferation assay
[6] = Homo sapiens, read-out: Percent Inhibition
[7] = BT-474 cell line, compound A × listed agent, 72-hour in vitro proliferation assay
[8] = KPL-1 cell line, Compound A × named agent, 72-hour proliferation
[9] = MCF7, combination with compound A, 72-hour proliferation
[10] = MDA-MB-175-VII, combination with compound A, 72-hour proliferation
[11] = MDA-MB-231, combination with compound A, 72-hour proliferation
[12] = MDA-MB-361, combination with compound A, 72-hour proliferation
[13] = MDA-MB-436, combination with compound A, 72-hour proliferation
[14] = MDA-MB-453, combination with compound A, 72-hour proliferation
[15] = MDA-MB-468, combination with compound A, 72-hour proliferation
[16] = SK-BR-3 cell line, combination Compound A × listed agent, 72-hour proliferation
[17] = SUM159PT cell line, combination Compound A × listed agent, 72-hour proliferation
[18] = T47D cell line, combination Compound A × listed agent, 72-hour proliferation
[19] = ZR-75-1 cell line, combination Compound A × listed agent, 72-hour proliferation
[20] = ZR-75-30 cell line, combination Compound A × listed agent, 72-hour proliferation

## CC(=O)O[C@@]12CO[C@@H]1C[C@H](O)[C@@]1(C)C(=O)[C@H](O)C3=C(C)[C@@H](OC(=O)[C@H](O)[C@@H](NC(=O)OC(C)(C)C)c4ccccc4)C[C@@](O)([C@@H](OC(=O)c4ccccc4)[C@H]21)C3(C)C [Docetaxel]
[1]; 72 h
  Best CI Level: 170

## N.N.[Cl][Pt][Cl] [Cisplatin]
[1]; [2]
  Best CI Level: 35
[1]; [3]
  Best CI Level: 65
[1]; [4]
  Best CI Level: 160
[1]; CAL-120 cell line, compound A × listed agent, 72-hour in vitro proliferation assay
  Best CI Level: 35
[1]; CAL-148 cell line, compound A × listed agent, 72-hour in vitro proliferation assay
  Best CI Level: 140
[1]; [5]
  Best CI Level: 40
[1]; HCC1143 cell line, compound A × listed agent, 72-hour in vitro proliferation assay
  Best CI Level: 55

## N.N.O=C([O-])C1(C(=O)[O-])CCC1.[Pt+2] [Carboplatin]
[1]; [2]
  Best CI Level: 40
[1]; [3]
  Best CI Level: 170
[1]; CAL-51 cell line, compound A × listed agent, 72-hour in vitro proliferation assay
  Best CI Level: 165
[1]; CAL-85-1 cell line, compound A × listed agent, 72-hour in vitro proliferation assay
  Best CI Level: 110
[1]; CAMA-1 cell line, compound A × listed agent, 72-hour in vitro proliferation assay
  Best CI Level: 180
[1]; [5]
  Best CI Level: 180
[1]; EVSA-T cell line, compound A × listed agent, 72-hour in vitro proliferation assay
  Best CI Level: 180

## CC(=O)O[C@H]1C(=O)[C@@]2(C)[C@H]([C@H](OC(=O)c3ccccc3)[C@]3(O)C[C@H](OC(=O)[C@H](O)[C@@H](NC(=O)c4ccccc4)c4ccccc4)C(C)=C1C3(C)C)[C@]1(OC(C)=O)CO[C@@H]1C[C@@H]2O [Paclitaxel]
FBXW7
  FBXW7 protein levels vs vehicle control (in words): Increases; also recorded: elevated
MCL1-BIM Dimer
  protein levels of MCL1-BIM dimers vs vehicle control (in words): Decreases; also recorded: reduced
HCC70
  inhibition at 0.0005 µM: -2.3%
  inhibition at 1 µM: 53.3%
  inhibition at 3 µM: 61.4%
MDA-MB-468
  inhibition at 0.0005 µM: 1.1%
  inhibition at 1 µM: 65.1%
  inhibition at 3 µM: 70.5%
MCL1-BAK Dimer
  protein levels of MCL1-BAK dimers vs vehicle control (in words): Decreases; also recorded: reduced
MCL1
  MCL1 protein levels vs vehicle control (in words): Decreases; also recorded: reduced

## COc1nn(C)cc1C(=O)N[S@@]1(=O)=NC(=O)c2ccc3c(c2)N(C[C@@H]2CC[C@H]2[C@@H](OC)CCC[C@H](C)C1)C[C@@]1(CCCc2cc(Cl)ccc21)CO3 [Compound A]
HCC1806; Compound A 0.004 μM
  Synergy Results (95% CI): 0.0
HCC1806; Compound A 1.000 μM
  Synergy Results (95% CI): 0.0
HCC1806; Compound A 3.000 μM
  Synergy Results (95% CI): 0.0
HCC1806; Compound A […]
  Synergy Results (95% CI): 0.0
HCC1806; [6]
  inhibition at 0.004 µM: 0.7%
  inhibition at 1 µM: 8.6%
  inhibition at 3 µM: 17.9%
HCC1187 (TNBC)
  Percent Inhibition: 99.2%

## CCOc1cc2ncc(C#N)c(Nc3ccc(OCc4ccccn4)c(Cl)c3)c2cc1NC(=O)/C=C/CN(C)C [Neratinib]
[1]; [7]
  Bliss Volume: 28.98
  HSA volume: 20.36
  Loewe Volume: 18.83
  Synergy Score: 39.01
[1]; [4]
  Best CI: 0.31
  Bliss Volume: 17.92
  HSA volume: 13.17
  Loewe Volume: 13.98
  Synergy Score: 25.15
[1]; [8]
  Best CI: 0.55
  Bliss Volume: 9.37
  HSA volume: 2.11
  Loewe Volume: 2.47
  Synergy Score: 9.97
[1]; [9]
  Best CI: 0.44
  Bliss Volume: 20.28
  HSA volume: 8.47
  Loewe Volume: 8.60
[1]; [10]
  Best CI: 0.64
  Bliss Volume: 18.28
  HSA volume: 8.80
  Loewe Volume: 7.95
  Synergy Score: 11.07
[1]; [11]
  Bliss Volume: 6.82
  HSA volume: 2.87
  Loewe Volume: 5.05
  Synergy Score: 4.59
[1]; [12]
  Bliss Volume: 8.05
  HSA volume: 9.22
  Loewe Volume: 8.69
  Synergy Score: 10.96
[1]; [13]
  Best CI: 0.26
  Bliss Volume: 5.24
  HSA volume: −0.69
  Loewe Volume: 0.79
  Synergy Score: 4.11
[1]; [14]
  Best CI: 0.35
  HSA volume: 10.24
  Loewe Volume: 8.51
  Synergy Score: 16.63
[1]; [15]
  Bliss Volume: 34.71
  Loewe Volume: 9.11
  Synergy Score: 19.05
[1]; [16]
  Best CI: 0.12
  Bliss Volume: 28.46
  HSA volume: 11.39
  Synergy Score: 22.77
[1]; [17]
  Best CI: 0.17
  Bliss Volume: 15.93
  HSA volume: 11.51
  Loewe Volume: 12.90
  Synergy Score: 22.98
[1]; [18]
  Bliss Volume: 7.67
  HSA volume: 2.55
  Loewe Volume: 5.95
  Synergy Score: 11.73
[1]; [19]
  Best CI: 0.86
  Bliss Volume: 13.55
  HSA volume: 6.49
  Loewe Volume: 7.51
  Synergy Score: 10.39
[1]; [20]
  Best CI: 0.41
  Bliss Volume: 32.84
  HSA volume: 16.20
  Loewe Volume: 14.61
  Synergy Score: 30.49
